Test system: MV-4-11 cells
Test: Gene expression microarray analysis (Affymetrix PrimeView) and GSEA
Assay type: cell-based, human
Set-up: RFU PODN (11730768_x_at) / Fold change /veh PODN (11730768_x_at) / RFU LINC00158 (11744669_a_at) / Fold change /veh LINC00158 (11744669_a_at) / RFU DUSP10 (11751237_a_at) / Fold change /veh DUSP10 (11751237_a_at) / RFU ID3 (11757404_x_at) / Fold change /veh ID3 (11757404_x_at) / RFU PLEKHG5 (11737974_s_at) / Fold change /veh PLEKHG5 (11737974_s_at) / RFU LRRC4B (11730491_at) / Fold change /veh LRRC4B (11730491_at) / RFU GIMAP4 (11747438_a_at) / Fold change /veh GIMAP4 (11747438_a_at) / RFU KRT8 (11758183_x_at) / Fold change /veh KRT8 (11758183_x_at) / RFU CNN1 (11734310_a_at) / Fold change /veh CNN1 (11734310_a_at) / RFU VPS37D (11726825_at) / Fold change /veh VPS37D (11726825_at) / RFU C10orf10 (11716522_x_at) / Fold change /veh C10orf10 (11716522_x_at) / RFU KIR2DL2 /// KIR2DL4 /// KIR2DL5A /// KIR2DL5B /// KIR2DS1 /// KIR2DS2 /// KIR2DS3 /// KIR2DS4 /// KIR3DL3 /// KIR3DL3 /// KIR3DS1 (11738374_at) / Fold change /veh KIR2DL2 /// KIR2DL4 /// KIR2DL5A /// KIR2DL5B /// KIR2DS1 /// KIR2DS2 /// KIR2DS3 /// KIR2DS4 /// KIR3DL3 /// KIR3DL3 /// KIR3DS1 (11738374_at) / RFU C1QL1 (11718748_at) / Fold change /veh C1QL1 (11718748_at) / RFU TMPRSS4 (11747572_a_at) / Fold change /veh TMPRSS4 (11747572_a_at) / RFU HAMP (11756126_x_at) / Fold change /veh HAMP (11756126_x_at) / RFU RNFT2 (11725882_a_at) / Fold change /veh RNFT2 (11725882_a_at) / RFU NR4A2 (11747474_a_at) / Fold change /veh NR4A2 (11747474_a_at) / RFU ABCC12 (11746883_a_at) / Fold change /veh ABCC12 (11746883_a_at) / RFU TMEM136 (11760407_x_at) / Fold change /veh TMEM136 (11760407_x_at) / RFU CLDN22 /// WWC2 (11732394_at) / Fold change /veh CLDN22 /// WWC2 (11732394_at) / RFU HLA-DPB1 (11760878_x_at) / Fold change /veh HLA-DPB1 (11760878_x_at) / RFU SPINT1 (11716480_a_at) / Fold change /veh SPINT1 (11716480_a_at) / RFU GAP43 (11754022_s_at) / Fold change /veh GAP43 (11754022_s_at) / RFU A4GNT (11735810_at) / Fold change /veh A4GNT (11735810_at) / RFU PRB3 (11715151_x_at) / Fold change /veh PRB3 (11715151_x_at) / RFU TUBB4B (11761932_at) / Fold change /veh TUBB4B (11761932_at) / RFU CAPN14 (11732068_a_at) / Fold change /veh CAPN14 (11732068_a_at) / RFU TMCC2 (11721928_a_at) / Fold change /veh TMCC2 (11721928_a_at) / RFU IRGQ (11745062_a_at) / Fold change /veh IRGQ (11745062_a_at) / RFU FAM174B (11720279_a_at) / Fold change /veh FAM174B (11720279_a_at) / RFU TMPRSS4 (11748680_a_at) / Fold change /veh TMPRSS4 (11748680_a_at) / RFU FAM212B (11763350_a_at) / Fold change /veh FAM212B (11763350_a_at) / RFU PLEKHG5 (11743358_a_at) / Fold change /veh PLEKHG5 (11743358_a_at) / RFU ZSCAN30 (11745921_a_at) / Fold change /veh ZSCAN30 (11745921_a_at) / RFU CMKLR1 (11741424_a_at) / Fold change /veh CMKLR1 (11741424_a_at) / RFU LOC101060620 /// MAPK8IP1 (11723275_at) / Fold change /veh LOC101060620 /// MAPK8IP1 (11723275_at) / RFU SPTSSB (11747773_x_at) / Fold change /veh SPTSSB (11747773_x_at) / RFU PRSS12 (11739890_at) / Fold change /veh PRSS12 (11739890_at) / RFU BIN1 (11741810_x_at) / Fold change /veh BIN1 (11741810_x_at) / RFU WNT11 (11732464_a_at) / Fold change /veh WNT11 (11732464_a_at) / RFU C10orf10 (11716521_a_at) / Fold change /veh C10orf10 (11716521_a_at) / RFU C5orf56 (11738089_at) / Fold change /veh C5orf56 (11738089_at) / RFU CYB561 (11721691_x_at) / Fold change /veh CYB561 (11721691_x_at) / RFU ANKRD19P (11752326_a_at) / Fold change /veh ANKRD19P (11752326_a_at) / RFU OR2T12 /// OR2T33 /// OR2T8 (11738714_s_at) / Fold change /veh OR2T12 /// OR2T33 /// OR2T8 (11738714_s_at) / RFU VCAN (11748164_a_at) / Fold change /veh VCAN (11748164_a_at) / RFU JSRP1 (11732532_at) / Fold change /veh JSRP1 (11732532_at) / RFU KRTAP10-11 (11738290_x_at) / Fold change /veh KRTAP10-11 (11738290_x_at) / RFU MYO3A (11730013_a_at) / Fold change /veh MYO3A (11730013_a_at) / RFU EBF3 (11725865_a_at) / Fold change /veh EBF3 (11725865_a_at) / RFU CAMK2N1 (11719241_x_at) / Fold change /veh CAMK2N1 (11719241_x_at) / RFU C5orf56 (11738088_a_at) / Fold change /veh C5orf56 (11738088_a_at) / RFU OLFML3 (11715873_a_at) / Fold change /veh OLFML3 (11715873_a_at) / RFU LOC100653217 /// NTM (11731650_a_at) / Fold change /veh LOC100653217 /// NTM (11731650_a_at) / RFU MAPK11 (11762145_a_at) / Fold change /veh MAPK11 (11762145_a_at) / RFU FIZ1 (11724087_x_at) / Fold change /veh FIZ1 (11724087_x_at) / RFU OASL (11726364_x_at) / Fold change /veh OASL (11726364_x_at) / RFU SOX15 (11748057_x_at) / Fold change /veh SOX15 (11748057_x_at) / RFU CD79A (11719716_a_at) / Fold change /veh CD79A (11719716_a_at) / RFU HIST1H1D (11736915_at) / Fold change /veh HIST1H1D (11736915_at) / RFU CASKIN2 (11723855_a_at) / Fold change /veh CASKIN2 (11723855_a_at) / RFU LOC730098 (11760151_x_at) / Fold change /veh LOC730098 (11760151_x_at) / RFU OR4N2 (11742367_at) / Fold change /veh OR4N2 (11742367_at) / RFU PRRT2 (11749266_a_at) / Fold change /veh PRRT2 (11749266_a_at) / RFU SNX32 (11753110_a_at) / Fold change /veh SNX32 (11753110_a_at) / RFU CDHR5 (11726645_a_at) / Fold change /veh CDHR5 (11726645_a_at) / RFU RCAN1 (11760418_a_at) / Fold change /veh RCAN1 (11760418_a_at) / RFU FAM167A (11723789_a_at) / Fold change /veh FAM167A (11723789_a_at) / RFU FAM26E (11764081_at) / Fold change /veh FAM26E (11764081_at) / RFU ISYNA1 (11749810_s_at) / Fold change /veh ISYNA1 (11749810_s_at) / RFU ACY1 (11761880_at) / Fold change /veh ACY1 (11761880_at) / RFU 11764098_at / Fold change /veh 11764098_at / RFU SAMD14 (11745864_x_at) / Fold change /veh SAMD14 (11745864_x_at) / RFU NPB (11741838_a_at) / Fold change /veh NPB (11741838_a_at) / RFU TMPRSS6 (11731388_a_at) / Fold change /veh TMPRSS6 (11731388_a_at) / RFU KRTAP10-2 (11738614_at) / Fold change /veh KRTAP10-2 (11738614_at) / RFU ARHGAP8 /// PRR5-ARHGAP8 (11727945_x_at) / Fold change /veh ARHGAP8 /// PRR5-ARHGAP8 (11727945_x_at) / RFU KRTAP5-7 /// NADSYN1 (11734609_at) / Fold change /veh KRTAP5-7 /// NADSYN1 (11734609_at) / RFU RASL12 (11751679_a_at) / Fold change /veh RASL12 (11751679_a_at) / RFU CDKN2B (11736163_a_at) / Fold change /veh CDKN2B (11736163_a_at) / RFU PRF1 (11729649_at) / Fold change /veh PRF1 (11729649_at) / RFU, ZNF638 /// ZNF638-IT1 / Fold change vs veh, ZNF638 /// ZNF638-IT1 / RFU, PANK3 / Fold change vs veh, PANK3 / RFU, SH3YL1 / Fold change vs veh, SH3YL1 / RFU, ZEB2 / Fold change vs veh, ZEB2 / RFU, NRIP1 / Fold change vs veh, NRIP1 / RFU, PTTG1IP / Fold change vs veh, PTTG1IP / RFU, CAPN2 / Fold change vs veh, CAPN2 / RFU, MED14 / Fold change vs veh, MED14 / RFU, SNORA58 / Fold change vs veh, SNORA58 / RFU, C1orf63 / Fold change vs veh, C1orf63 / RFU, LRRFIP1 / Fold change vs veh, LRRFIP1 / RFU, NDUFAF7 / Fold change vs veh, NDUFAF7 / RFU, SLC12A2 / Fold change vs veh, SLC12A2 / RFU, IBTK / Fold change vs veh, IBTK / RFU, ESF1 / Fold change vs veh, ESF1 / Fold change vs veh, TMEM50B / RFU, TAOK1 / Fold change vs veh, TAOK1 / RFU, ACBD3 / Fold change vs veh, ACBD3 / RFU, TMA16 / Fold change vs veh, TMA16 / RFU, RWDD3 / Fold change vs veh, RWDD3 / RFU, BCAT1 / Fold change vs veh, BCAT1 / RFU, EDEM3 / Fold change vs veh, EDEM3 / RFU, TMEM33 / Fold change vs veh, TMEM33 / RFU, WDR75 / Fold change vs veh, WDR75 / RFU, AHCTF1 / Fold change vs veh, AHCTF1 / RFU, TFRC / Fold change vs veh, TFRC / RFU, ZDHHC17 / Fold change vs veh, ZDHHC17 / RFU, NOM1 / Fold change vs veh, NOM1 / RFU, ARL8B / Fold change vs veh, ARL8B / RFU, ZBTB11 / Fold change vs veh, ZBTB11 / RFU, TAMM41 / Fold change vs veh, TAMM41 / RFU, KIAA1704 /// LOC100996395 / Fold change vs veh, KIAA1704 /// LOC100996395 / RFU, ING1 / Fold change vs veh, ING1 / RFU, TRMT61B / Fold change vs veh, TRMT61B / RFU, FUBP3 / Fold change vs veh, FUBP3 / RFU, TP53 / Fold change vs veh, TP53 / RFU, TNKS2 / Fold change vs veh, TNKS2 / RFU, ZFP14 / Fold change vs veh, ZFP14 / RFU, ACTR2 / Fold change vs veh, ACTR2 / RFU, PPP3R1 / Fold change vs veh, PPP3R1 / RFU, PIK3R1 / Fold change vs veh, PIK3R1 / RFU, HNRNPA1 / Fold change vs veh, HNRNPA1 / RFU, RNF170 / Fold change vs veh, RNF170 / RFU, ZNF28 / Fold change vs veh, ZNF28 / RFU, RNGTT / Fold change vs veh, RNGTT / RFU, OGT / Fold change vs veh, OGT / RFU, BRD1 / Fold change vs veh, BRD1 / RFU, MARS / Fold change vs veh, MARS / RFU, ZNF655 / Fold change vs veh, ZNF655 / RFU, FAHD1 / Fold change vs veh, FAHD1 / RFU, BDP1 / Fold change vs veh, BDP1 / RFU, LRRCC1 / Fold change vs veh, LRRCC1 / RFU, ARID1A / Fold change vs veh, ARID1A / RFU, ZNF146 / Fold change vs veh, ZNF146 / RFU, ZNF330 / Fold change vs veh, ZNF330 / RFU, GPN3 / Fold change vs veh, GPN3 / RFU, C9orf123 / Fold change vs veh, C9orf123 / RFU, N4BP2L2 / Fold change vs veh, N4BP2L2 / RFU, ARFIP1 / Fold change vs veh, ARFIP1 / RFU, FAM179B / Fold change vs veh, FAM179B / RFU, BCL10 / Fold change vs veh, BCL10 / RFU, UHRF1BP1L / Fold change vs veh, UHRF1BP1L / RFU, BET1 / Fold change vs veh, BET1 / RFU, CNOT2 / Fold change vs veh, CNOT2 / RFU, ZNF268 / Fold change vs veh, ZNF268 / Fold change vs veh, ZNF507 / RFU, DGCR2 / Fold change vs veh, DGCR2 / RFU, WDSUB1 / Fold change vs veh, WDSUB1 / Fold change vs veh, HSP90B1 /// MIR3652 / RFU, ADSS / Fold change vs veh, ADSS / RFU, GK / Fold change vs veh, GK / RFU, ZNF148 / Fold change vs veh, ZNF148 / RFU, TAF9 / Fold change vs veh, TAF9 / RFU, SLC1A5 / Fold change vs veh, SLC1A5 / RFU, SLMO2 / Fold change vs veh, SLMO2 / RFU, ABCC4 / Fold change vs veh, ABCC4 / RFU, LOC101060439 /// RAP1B / Fold change vs veh, LOC101060439 /// RAP1B / RFU, RFX7 / Fold change vs veh, RFX7 / RFU, GTPBP10 / Fold change vs veh, GTPBP10 / RFU, CNEP1R1 / Fold change vs veh, CNEP1R1 / RFU, BIVM-ERCC5 /// ERCC5 / Fold change vs veh, BIVM-ERCC5 /// ERCC5 / RFU, ILF3 / Fold change vs veh, ILF3 / RFU 11762660_at / Fold change /veh 11762660_at / RFU VCAN (11757783_s_at) / Fold change /veh VCAN (11757783_s_at) / RFU DDX43 (11728927_at) / Fold change /veh DDX43 (11728927_at) / RFU KRT8 (11758188_x_at) / Fold change /veh KRT8 (11758188_x_at) / RFU NKD1 (11759106_at) / Fold change /veh NKD1 (11759106_at) / RFU SRD5A1 (11742802_a_at) / Fold change /veh SRD5A1 (11742802_a_at) / RFU TPSAB1 /// TPSB2 (11721975_s_at) / Fold change /veh TPSAB1 /// TPSB2 (11721975_s_at) / RFU GSTM3 (11746129_a_at) / Fold change /veh GSTM3 (11746129_a_at) / RFU IL23R (11737362_x_at) / Fold change /veh IL23R (11737362_x_at) / RFU TMEM51 (11727254_a_at) / Fold change /veh TMEM51 (11727254_a_at) / RFU PIWIL2 (11732686_x_at) / Fold change /veh PIWIL2 (11732686_x_at) / RFU ORM1 (11744905_x_at) / Fold change /veh ORM1 (11744905_x_at) / RFU CCDC152 (11743942_at) / Fold change /veh CCDC152 (11743942_at) / RFU ECM1 (11717891_a_at) / Fold change /veh ECM1 (11717891_a_at) / RFU IL23R (11748794_a_at) / Fold change /veh IL23R (11748794_a_at) / RFU TNFAIP8L3 (11732012_x_at) / Fold change /veh TNFAIP8L3 (11732012_x_at) / RFU MBOAT4 (11741988_at) / Fold change /veh MBOAT4 (11741988_at) / RFU 11764193_at / Fold change /veh 11764193_at / RFU TMEM53 (11763286_at) / Fold change /veh TMEM53 (11763286_at) / RFU MAGEB2 (11727129_at) / Fold change /veh MAGEB2 (11727129_at) / RFU TMEM200A (11744735_a_at) / Fold change /veh TMEM200A (11744735_a_at) / RFU CCDC152 (11751479_a_at) / Fold change /veh CCDC152 (11751479_a_at) / RFU FAM211A (11726209_a_at) / Fold change /veh FAM211A (11726209_a_at) / RFU RGS16 (11746705_a_at) / Fold change /veh RGS16 (11746705_a_at) / RFU VCAN (11755009_s_at) / Fold change /veh VCAN (11755009_s_at) / RFU RHOB (11743442_s_at) / Fold change /veh RHOB (11743442_s_at) / RFU RGS16 (11720943_a_at) / Fold change /veh RGS16 (11720943_a_at) / RFU RGS16 (11720944_at) / Fold change /veh RGS16 (11720944_at) / RFU, VPS4B / Fold change vs veh, VPS4B / RFU, CREB1 / Fold change vs veh, CREB1 / RFU, DNAJC13 / Fold change vs veh, DNAJC13 / RFU, GNAQ / Fold change vs veh, GNAQ / RFU, CDK5R1 / Fold change vs veh, CDK5R1 / RFU, ZRANB3 / Fold change vs veh, ZRANB3 / RFU, CUL4A / Fold change vs veh, CUL4A / RFU, CCNY / Fold change vs veh, CCNY / RFU, UFL1 / Fold change vs veh, UFL1 / RFU, COG3 / Fold change vs veh, COG3 / RFU, DIAPH2 / Fold change vs veh, DIAPH2 / RFU, SKA2 / Fold change vs veh, SKA2 / RFU, AFF3 / Fold change vs veh, AFF3 / RFU, LMF1 / Fold change vs veh, LMF1 / RFU, IPO11 / Fold change vs veh, IPO11 / RFU, DFFB / Fold change vs veh, DFFB / RFU, FOXP1 / Fold change vs veh, FOXP1 / RFU, CARD8 / Fold change vs veh, CARD8 / RFU, STRN3 / Fold change vs veh, STRN3 / RFU, ADK / Fold change vs veh, ADK / RFU, RASSF2 / Fold change vs veh, RASSF2 / RFU, WIPF1 / Fold change vs veh, WIPF1 / RFU, LARP1B / Fold change vs veh, LARP1B / RFU, RASA1 / Fold change vs veh, RASA1 / RFU, RB1 / Fold change vs veh, RB1 / RFU, PPFIA1 / Fold change vs veh, PPFIA1 / RFU, MAT2A / Fold change vs veh, MAT2A / RFU, CCT5 / Fold change vs veh, CCT5 / RFU, WDR92 / Fold change vs veh, WDR92 / RFU, CUX1 / Fold change vs veh, CUX1 / RFU, TTC7A / Fold change vs veh, TTC7A / RFU, TMEM135 / Fold change vs veh, TMEM135 / RFU, DEPTOR / Fold change vs veh, DEPTOR / RFU, CPM / Fold change vs veh, CPM / RFU, DNAJB6 / Fold change vs veh, DNAJB6 / RFU, CACNA2D3 / Fold change vs veh, CACNA2D3 / RFU, DTX4 / Fold change vs veh, DTX4 / RFU, TFCP2 / Fold change vs veh, TFCP2 / RFU, GMCL1 /// GMCL1P1 / Fold change vs veh, GMCL1 /// GMCL1P1 / RFU, AEBP2 / Fold change vs veh, AEBP2 / RFU, SNHG1 /// SNORD22 /// SNORD25 /// SNORD26 /// SNORD27 /// SNORD28 /// SNORD29 /// SNORD31 / Fold change vs veh, SNHG1 /// SNORD22 /// SNORD25 /// SNORD26 /// SNORD27 /// SNORD28 /// SNORD29 /// SNORD31 / Fold change (Aza/veh), C12orf56 (ProbeSet 11735607_a_at) / Fold change (ACY-1035/veh), C12orf56 (ProbeSet 11735607_a_at) / Fold change (Aza/veh), FGFR1OP (ProbeSet 11751329_s_at) / Fold change (ACY-1035/veh), FGFR1OP (ProbeSet 11751329_s_at) / Fold change (Aza/veh), VPS36 (ProbeSet 11739960_a_at) / Fold change (ACY-1035/veh), VPS36 (ProbeSet 11739960_a_at) / RFU SYPL1 (11715823_x_at) / Fold change /veh SYPL1 (11715823_x_at) / RFU IGFBP7 (11715501_s_at) / Fold change /veh IGFBP7 (11715501_s_at) / RFU REEP3 (11722064_at) / Fold change /veh REEP3 (11722064_at) / RFU IGLL1 (11728026_x_at) / Fold change /veh IGLL1 (11728026_x_at): dose or concentration left out as unconfirmed
Details: MV-4-11 cells, 48 hours

Which “Fold change /veh FAM174B (11720279_a_at)” value does the source give for `Nc1ncn([C@@H]2O[C@H](CO)[C@@H](O)[C@H]2O)c(=O)n1` [azacitidine] here?
The value was 1.12.

— article PMC5218480 (PLoS ONE, 2017)
